From patent US4156724A, “N-acylamino-alpha-arylacetamido cephalosporins and antibacterial compositions and methods containing them” (Sumitomo Chemical Company, Limited, priority 1974, dated 1979) come the findings set out here.

What all share (type): cell-based
Assay [1] relates to Enterobacter aerogeneus No. 75. As to the kind of experiment: Minimum Inhibitory Concentration, Enterobacter aerogeneus No. 75. As to conditions: Enterobacter aerogeneus No. 75; for MIC: read-out: Minimum Inhibitory Concentration. The procedure: (§1) anti-microbial activity tests were carried out on the compounds obtained in the Examples.
For assay [2], the system named is Escherichia coli NIHJ. As to the kind of experiment: Minimum Inhibitory Concentration, Escherichia coli NIHJ. To be noted: Escherichia coli NIHJ; for MIC: read-out: Minimum Inhibitory Concentration. The method, then:
as §1

In assay [3] the test system is Serratia No. 72. As to the kind of experiment: Minimum Inhibitory Concentration, Serratia No. 72. The procedure: as §1
Assay [4] has as its system Staphylococcus aureus FS 289. The experiment in a line: Minimum Inhibitory Concentration, Staphylococcus aureus FS 289. To be noted: Staphylococcus aureus FS 289, strain resistant to penicillin; for MIC: FS289, read-out: Minimum Inhibitory Concentration. The method, then:
as §1
*Staphylococcus aureus FS 289: strain resistant to penicillin

The subject of assay [5] is Staphylococcus aureus 209 P. The experiment in a line: Minimum Inhibitory Concentration, Staphylococcus aureus 209 P. As to conditions: Staphylococcus aureus 209 P; for MIC: read-out: Minimum Inhibitory Concentration. The method, then:
as §1

The test system of assay [6] is Klebsiella pneumoniae 602. The experiment in a line: Minimum Inhibitory Concentration, Klebsiella pneumoniae 602. To be noted: for MIC: Klebsiella pneumoniae, 602, Klebsiella pneumoniae 602, read-out: Minimum Inhibitory Concentration. The method, then:
as §1

For assay [7], the system named is Proteus vulgaris HX 19. As to the kind of experiment: Minimum Inhibitory Concentration, Proteus vulgaris HX 19. To be noted: Proteus vulgaris HX 19; for MIC: HX19, read-out: Minimum Inhibitory Concentration. The method, then:
as §1

For assay [8], the system named is Pseudomonas aeruginosa 104. The experiment in a line: Minimum Inhibitory Concentration, Pseudomonas aeruginosa 104. As to conditions: Pseudomonas aeruginosa 104; for MIC: read-out: Minimum Inhibitory Concentration. The procedure:
as §1

Values after ≈ are worked out from the molar mass of the structure shown.

Consider `CC(=O)OCC1=C(C(=O)O)N2C(=O)C(NC(=O)C(NC(=O)c3cnc4cccnc4c3O)c3cccc(N)c3)C2SC1` (stereo not drawn) [Example 53], for which the MIC amounted to 6.25 µg/mL (≈ 10.5 µM) in assay [1]; 3.13 µg/mL (≈ 5.28 µM) in assay [2]; 50 µg/mL (≈ 84.4 µM) in assay [3]; 6.25 µg/mL (≈ 10.5 µM) in assay [4]; 1.56 µg/mL (≈ 2.63 µM) in assay [5]; 1.56 µg/mL (≈ 2.63 µM) in assay [6]. In addition, the MIC in assay [7] turned out to be 0.39 µg/mL (≈ 0.658 µM); in assay [8] it was 6.25 µg/mL (≈ 10.5 µM).

In the case of `Nc1cccc(C(NC(=O)c2cnc3cccnc3c2O)C(=O)NC2C(=O)N3C(C(=O)O)=C(CSc4cnn[nH]4)CSC23)c1` (stereo not drawn) [Example 54], the MIC in assay [1] is 3.13 µg/mL (≈ 4.94 µM); in assay [2], 1.56 µg/mL (≈ 2.46 µM); in assay [3], 12.5 µg/mL (≈ 19.7 µM); in assay [4], 6.25 µg/mL (≈ 9.86 µM); in assay [5], 0.78 µg/mL (≈ 1.23 µM); in assay [6], 3.13 µg/mL (≈ 4.94 µM). The MIC was 0.1 µg/mL (≈ 0.158 µM) in assay [7] and 3.13 µg/mL (≈ 4.94 µM) in assay [8].

As to `Cn1nnnc1SCC1=C(C(=O)[O-])N2C(=O)C(NC(=O)C(NC(=O)c3cnc4cccnc4c3O)c3cccc(N)c3)C2SC1.[Na+]` (stereo not drawn) [Example 55], the “Minimum Inhibitory Concentration” value was determined as 3.13 µg/mL in assay [1]; 1.56 µg/mL in assay [2]; 12.5 µg/mL in assay [3]; 3.13 µg/mL in assay [4]; 0.78 µg/mL in assay [5]; 3.13 µg/mL in assay [6] (Klebsiella pneumoniae 602). Also, the “Minimum Inhibitory Concentration” value in assay [7] stood at 0.1 µg/mL; in assay [8], 3.13 µg/mL.

Take `Cc1nnc(SCC2=C(C(=O)O)N3C(=O)C(NC(=O)C(NC(=O)c4cnccc4O)c4ccc(N)cc4)C3SC2)s1` (stereo not drawn) [Example 56]: the MIC in assay [1] was found to be 12.5 µg/mL (≈ 20.4 µM); in assay [2], 6.25 µg/mL (≈ 10.2 µM); in assay [3], 50 µg/mL (≈ 81.5 µM); in assay [4], 6.25 µg/mL (≈ 10.2 µM); in assay [5], 0.39 µg/mL (≈ 0.635 µM); in assay [6], 6.25 µg/mL (≈ 10.2 µM). The MIC in assay [7] worked out at 0.1 µg/mL (≈ 0.163 µM); in assay [8], 6.25 µg/mL (≈ 10.2 µM).

With `Cn1nnnc1SCC1=C(C(=O)O)N2C(=O)C(NC(=O)C(NC(=O)c3cnccc3O)c3cccc(N)c3)C2SC1` (stereo not drawn) [Example 57], the MIC came to 12.5 µg/mL (≈ 20.9 µM) in assay [1]; 6.25 µg/mL (≈ 10.5 µM) in assay [2]; 50 µg/mL (≈ 83.7 µM) in assay [3]; 6.25 µg/mL (≈ 10.5 µM) in assay [4]; 0.39 µg/mL (≈ 0.653 µM) in assay [5]; 6.25 µg/mL (≈ 10.5 µM) in assay [6]. Further, the MIC in assay [7] turned out to be 0.1 µg/mL (≈ 0.167 µM); in assay [8] it was 6.25 µg/mL (≈ 10.5 µM).

As for `CC(=O)OCC1=C(C(=O)O)N2C(=O)C(NC(=O)C(NC(=O)c3ccnnc3O)c3ccc(N)cc3)C2SC1` (stereo not drawn) [Example 58], the MIC in assay [1] was 25 µg/mL (≈ 46.1 µM); in assay [2] it was 12.5 µg/mL (≈ 23 µM); in assay [3] it was over 200 µg/mL; in assay [4] it was 3.13 µg/mL (≈ 5.77 µM); in assay [5], 0.39 µg/mL (≈ 0.719 µM); in assay [6], 12.5 µg/mL (≈ 23 µM). Also, the MIC in assay [7] was 0.2 µg/mL (≈ 0.369 µM); in assay [8] it was 6.25 µg/mL (≈ 11.5 µM).

In the case of `Nc1cccc(C(NC(=O)c2ccnnc2O)C(=O)NC2C(=O)N3C(C(=O)O)=C(CSc4nncs4)CSC23)c1` (stereo not drawn) [Example 59], the MIC stood at 12.5 µg/mL (≈ 20.8 µM) in assay [1]; 6.25 µg/mL (≈ 10.4 µM) in assay [2]; 50 µg/mL (≈ 83.2 µM) in assay [3]; 6.25 µg/mL (≈ 10.4 µM) in assay [4]; 0.39 µg/mL (≈ 0.649 µM) in assay [5]; 6.25 µg/mL (≈ 10.4 µM) in assay [6]. For the same compound, the MIC amounted to 0.1 µg/mL (≈ 0.166 µM) in assay [7] and 6.25 µg/mL (≈ 10.4 µM) in assay [8].

For the compound `Cn1nnnc1SCC1=C(C(=O)O)N2C(=O)C(NC(=O)C(NC(=O)c3ccnnc3O)c3cccc(N)c3)C2SC1` (stereo not drawn) [Example 60], the MIC in assay [1] was 12.5 µg/mL (≈ 20.9 µM); in assay [2] it was 6.25 µg/mL (≈ 10.4 µM); in assay [3], 50 µg/mL (≈ 83.5 µM); in assay [4] it was 6.25 µg/mL (≈ 10.4 µM); in assay [5], 0.39 µg/mL (≈ 0.651 µM); in assay [6], 6.25 µg/mL (≈ 10.4 µM). Further, the MIC was 0.1 µg/mL (≈ 0.167 µM) in assay [7] and 6.25 µg/mL (≈ 10.4 µM) in assay [8].

Regarding `Cc1nnc(SCC2=C(C(=O)O)N3C(=O)C(NC(=O)C(NC(=O)c4cncnc4O)c4ccc(N)cc4)C3SC2)s1` (stereo not drawn) [Example 61], the MIC in assay [1] was 25 µg/mL (≈ 40.7 µM); in assay [2] it was 25 µg/mL (≈ 40.7 µM); in assay [3] it was over 200 µg/mL; in assay [4], 6.25 µg/mL (≈ 10.2 µM); in assay [5], 0.39 µg/mL (≈ 0.634 µM); in assay [6], 12.5 µg/mL (≈ 20.3 µM). The MIC stood at 0.2 µg/mL (≈ 0.325 µM) in assay [7] and 6.25 µg/mL (≈ 10.2 µM) in assay [8].
